These results are taken from patent US5340800A, “Peptide medicaments for the treatment of disease” (priority 1992, dated 1994).

Read-outs that look alike come from different tables or passages of the source. No end group written: not given here.

Assay [1] has as its system polymorphonuclear leukocyte adhesion to TNF activated endothelial cells. Format: cell-based, human. Particulars: for Average % Change of PMN Adhesion to TNF Activated ECs: average over PMN donors (# donors in parentheses). Here is the method:
Leukocyte adherence can be measured using several assays known in the art, and the preferred assay is described by Charo, et al., 1985, Blood, 65:473. Briefly, the assay consists of labelling leukocytes with an appropriate label, incubating them with endothelial cells and determining the number of leukocytes that adhere. Preferably the cells are labelled with a gamma ray emitting isotope and the preferred labels are ^111 Indium-oxide or ^51 chromium.
Leukocytes may be isolated from human donors using standard techniques. This generally consists of isolating blood in a physiologically balanced salt solution containing an appropriate anticoagulant, and separating the leukocytes by an appropriate separation step, preferably on Ficoll-Hypaquegradients. Contaminating erythrocytes can be removed by hypotonic lysis. The resulting leukocytes are suspended in a physiologically buffered solution, pH 7.4. The preferred physiological buffered solution is Hank's balanced salt solution that is calcium and magnesium free.
The isolated leukocytes can then be labelled by incubating them for an appropriate time, generally 15 minutes, with the desired radioisotope at a predetermined concentration. The radiolabelled cells are washed to remove unincorporated label, and then suspended in an appropriate solution to perform the adhesion assay described below.
Endothelial cells can be prepared from a number of sources and by several techniques known in the art. Preferably they are obtained from human umbilical veins using the procedure of Charo et al., above. Generally, endothelial cells are isolated by enzymatic digestion of the umbilical veins using, preferably, collagenase as described by Jaffe, E. A., et al., 1973, J. of Clin. Invest, 52:2745. The cells are grown on an appropriate tissue culture substratum, preferably gelatine-coated surfaces.
The endothelial cells may be grown in a variety of tissue culture media containing appropriate supplements such as an appropriate concentration of fetal calf serum, and other supplements/additives routinely utilized by those skilled in this art that are recognized as being favorable for endothelial cells. The endothelial cells may be passaged with a dilute solution of an appropriate protease, and if desired a metal ion chelator. Preferably a solution consisting of 0.05 to 0.25% trypsin and 0.02% EDTA is used. To ensure that the cells are indeed endothelial cells, they are tested by immunofluorescence for Factor VIII antigen, a known endothelial cell marker.
Leukocyte adherence to endothelial cell monolayers may be determined as follows. Early passage endothelial cells, generally not beyond the fifth passage, are cultured on an appropriate substratum and in a suitable cell culture medium. The culture substratum is preferably pre-coated with an appropriate substance that enhances the adherence of the endothelial cells. Several such substances are known including fibronectin, poly-L-lysine, gelatin and laminin. Fibronectin is preferred. An appropriate culture substratum is a 96 well micro titer plate, and a suitable medium is Medium 199 containing fetal calf serum and other supplements known to be beneficial for the growth and maintenance of endothelial cells that are well known to those skilled in the art. Prior to adding a predetermined number of labelled leukocytes, the endothelial cell monolayer is washed with a physiologically balanced salt solution containing a reduced amount of fetal calf serum, preferably 1%. The preferred solution is RPMI supplemented with 1% fetal calf serum.
The endothelial cell monolayer containing added leukocytes is incubated for a time sufficient to permit maximum adherence of the leukocytes, and preferably this is conducted at 37° C. for 30 minutes in an appropriate cell culture atmosphere. Generally this would consist of growing and incubating the cells for the assay period in 5% CO2, 95% air, and 95% humidity. […]

In assay [2] the test system is polymorphonuclear leukocyte migration. The assay is described as follows: Chemotaxis of polymorphonuclear leukocytes (trans-well, zymosan-activated human serum). The class given is cell-based. Here is the method: The materials and methods for ascertaining the chemotactic inhibitory properties of peptides are generally known in the art, and the preferred procedure is described by Capsoni, et al., 1989, J. of Immunol. Meth., 120:125. Generally, chemotaxis is determined by positioning the leukocytes and a chemotactic substance on opposite sides of a membrane in appropriate culture media. The preferred apparatus for doing a chemotaxis assay is produced by Costar Corporation, Cambridge, Mass., and is termed the trans-well cell culture apparatus. […] If a substance is being tested for inhibitory activity this can be achieved by combining it with the leukocytes or the chemotactic substance.
The procedure of Capsoni, et al., above, was followed with the following modifications. Leukocytes may be isolated and labelled with ^111 Indium as described for the adhesion assay, above. The cells are resuspended after labelling in an appropriate cell culture medium at about 5×10^6 cells/ml. Next, a desired amount of the cell suspension is mixed with a predetermined amount of the peptide(s) to be tested for inhibitory activity, and the mixture added to an appropriate filter device. Three μm-pore membranes are situated in the wells of a 24 trans-well tissue culture plate. The cell/inhibitory peptide mixture is incubated for a short time at 37° C. to acclimate the cells to the membrane surface, and to provide sufficient time for them to settle onto the membrane surface. Next, inserts are set in wells containing cell culture media. The media contains zymosan-activated human serum at about 0.5%. Zymosan activation generates complement-derived chemotactic factors which attract the leukocytes through the pores of the membrane. This media was also prewarmed for an appropriate time prior to addition to the cell culture wells. After a 30 minute incubation period at 37° C., the number of leukocytes that have migrated through the membrane filter, in the presence or absence of CD18 peptides, is readily determined by counting the amount of ^111 Indium present in the media. This may be facilitated by adding an appropriate detergent at an appropriate concentration to the media in the wells prior to removing an aliquot for counting. In this way, the inhibitory activities of the peptide being tested could be determined.
Many of the materials and methods used to test the inhibitory activity of the CD18 peptides on the chemotactic response of the polymorphonuclear leukocytes are similar or identical to those used to perform the adhesion assays described in Example 1. Polymorphonuclear leukocytes were isolated and labelled with ^111 Indium as described before, and the cells were suspended in RPMI 1640 culture medium at a concentration of 5×10^6 /ml. Next, 75 μl of the cell suspension and 25 μl of media containing a desired concentration of a CD18 peptide were added to trans-well inserts, and the mixture was incubated at 37° C. for 10 minutes.
To the bottom wells of the 24-well plate 0.6 ml of media containing 0.5% zymosan-activated human serum was added. This solution was also warmed to 37° C. for 10 minutes prior to use.
Next, the assay was conducted by incubating the trans-well inserts containing the cell suspension with the desired CD18 peptide in the 24-well plates at 37° C. for 30 minutes. Subsequently, the inserts were removed, and 60 μl of a 10% sodium dodecyl sulphate solution was added to the wells of the 24-well plate. The plates were incubated with gentle shaking at room temperature for 15 minutes, and 110 μl aliquots were removed and the amount of ^111 Indium determined using a gamma-counter.

“RIGFGSFVDKTVLPFVNTHPDKLRN [Peptide 6-25, NH2 --Arg--Ile--Gly--Phe--Gly--Ser--Phe--Val--Asp--Lys--Thr--Val--Leu--Pro--Phe--Val--Asn--Thr--His--Pro--Asp--Lys--Leu--Arg--Asn--COOH]”: the “Average % Change of PMN Adhesion to TNF Activated ECs” value (“Average % Change of PMN Adhesion” below) was -13% in assay [1] (10^-4 M), “+8%” in assay [1] (10^-6 M) and “+12%” in assay [1] (10^-8 M). In addition, the “percent inhibition (-) or enhancement of polymorphonuclear leukocyte migration” value (from here on “percent inhibition (-) or enhancement”) is -4% in assay [2] (10^-4 M, donor 195); -3% in assay [2] (10^-4 M, donor 499); -16% in assay [2] (10^-4 M, donor 591); -51% in assay [2] (10^-4 M, donor 593); 11% in assay [2] (10^-5 M, donor 195); -13% in assay [2] (10^-5 M, donor 499). The “percent inhibition (-) or enhancement” value in assay [2] (10^-5 M, donor 591) is 49%; in assay [2] (10^-5 M, donor 593), 26%; in assay [2] (10^-6 M, donor 195) it was -44%; in assay [2] (10^-6 M, donor 499), -8%; in assay [2] (10^-6 M, donor 591), 49%; in assay [2] (10^-6 M, donor 593), 20%.
As for “VGKQLISGNLDAPEGGLDAMMQVA [Peptide 5-24, NH2 --Val--Gly--Lys--Gln--Leu--Ile--Ser--Gly--Asn--Leu--Asp--Ala--Pro--Glu--Gly--Gly--Leu--Asp--Ala--Met--Met--Gln--Val--Ala--COOH]”, the results for the “Average % Change of PMN Adhesion” value in assay [1] (10^-4 M), in assay [1] (10^-6 M) and in assay [1] (10^-8 M) were -17%, -13% and -6%, respectively. The “percent inhibition (-) or enhancement” value in assay [2] (10^-4 M, donor 195) was -52%; in assay [2] (10^-4 M, donor 499), 0%; in assay [2] (10^-4 M, donor 591) it was 51%; in assay [2] (10^-4 M, donor 593) it was -33%; in assay [2] (10^-5 M, donor 195) it was -56%; in assay [2] (10^-5 M, donor 499) it was -15%. Moreover, the “percent inhibition (-) or enhancement” value in assay [2] (10^-5 M, donor 591) is listed as 55%; in assay [2] (10^-5 M, donor 593) it was 12%; in assay [2] (10^-6 M, donor 195), -22%; in assay [2] (10^-6 M, donor 499), -26%; in assay [2] (10^-6 M, donor 591), 52%; in assay [2] (10^-6 M, donor 593), -4%.
Turning to “YPIDLYYLMDLSYSMLDDLRNVKKLG [Peptide 1-26, NH2 --Tyr--Pro--Ile--Asp--Leu--Tyr--Tyr--Leu--Met--Asp--Leu--Ser--Tyr--Ser--Met--Leu--Asp--Asp--Leu--Arg--Asn--Val--Lys--Lys--Leu--Gly--COOH]”, the “concentration of peak inhibitory activity in the PMN adhesion assay” value in assay [1] is 10^-4 to 10^-5 M. The “Average % Change of PMN Adhesion” value is -41% in assay [1] (10^-4 M); -33% in assay [1] (10^-5 M); -6% in assay [1] (10^-6 M); “+24%” in assay [1] (10^-7 M); “+9%” in assay [1] (10^-8 M). Further, the “percent inhibition (-) or enhancement” value in assay [2] (10^-4 M, donor 195) is listed as 19%; in assay [2] (10^-4 M, donor 499), 8%; in assay [2] (10^-4 M, donor 591), -9%; in assay [2] (10^-4 M, donor 593), -50%; in assay [2] (10^-5 M, donor 195), -41%; in assay [2] (10^-5 M, donor 499), -3%. The “percent inhibition (-) or enhancement” value is -36% in assay [2] (10^-5 M, donor 591); -19% in assay [2] (10^-5 M, donor 593); -37% in assay [2] (10^-6 M, donor 195); 13% in assay [2] (10^-6 M, donor 499); -39% in assay [2] (10^-6 M, donor 591); -14% in assay [2] (10^-6 M, donor 593).
